According to US5824668A, “Formulation for administration of steroid compounds” (priority 1996, dated 1998):
“Also recorded” adds a separate entry of the source.

Experiments:
[1] = cited from earlier work; for influence on stabilization of mitomycin-C: acidic aqueous media, pH ranges studied
[2] = cited from earlier work; for pyrogenic reaction: intramuscular injection
auto-immune diseases = conditions: cited from earlier work
[3] = test system: genetically obese and diabetic mice; conditions: cited from earlier work; for effectiveness relative to DHEA in preventing development of diabetes: C57BL/KsJ-db/db diabetic mice; for blood sugar / effect on the pancreas (granulation of islet cells) / plasma insulin concentrations: Coleman 1984
[4] = cited from earlier work; for conversion in serum: normal and obese subjects, unpublished data; for oxidation at C-3 position to form etiocholandione: oral or parenteral; for recovery in the urine: parenteral routes
rats and mice = conditions: cited from earlier work
[5] = test system: severely diabetic mammals; conditions: oral; cited from earlier work
genetically obese mice = conditions: cited from earlier work; for anti-obesity effect / development of obesity / weight reduction after obesity: supplied in the diet, diabetic genetically obese mice
female patients = conditions: cited from earlier work
[6] = Optical density of ET and ED dissolved in hydroxypropyl-β-cyclodextrin solutions; assay type: physicochemical
Experimental: The optical density (OD) of the ET and ED dissolved in hydroxypropyl-β-cyclodextrin solutions was determined at 400 NM against a blank control containing water and set at an OD of 0.0.

aplastic anemia patients = conditions: cited from earlier work; for patients with hematologic responses lasting longer than six months: of 43 patients treated with either α- and/or β ET, im
obese subjects = conditions: oral, cited from earlier work
[7] = Dissolution of 5β steroid in water or in hydroxypropyl-β-cyclodextrin solution (Examples I-VII); assay type: physicochemical
Experimental: 12 milligrams (mg) of Etiocholandione (Steraloids, Inc. New Hampshire) was stirred and shaken with 0.5 ml of water in a test tube.
A 50% solution of hydroxypropyl-β-cyclodextrin was prepared as follows. 5 grams of pyrogen free hydroxypropyl-β-cyclodextrin (sold under the trade name Encapsin, Amaizo, Inc., Hammond, Ind., USA) was weighed on an analytical scale and placed in a graduated cylinder. Water was added with shaking until the volume reached 10 ml.
0.5 ml of the 50% solution of hydroxypropyl-β-cyclodextrin was added to the 0.5 ml of water containing 12 mg of Etiocholandione with additional shaking.
The previous experiment was repeated using a 50% solution of hydroxypropyl-β-cyclodextrin prepared as in Example 1. 50 mg of Etiocholandione was weighed and placed in a test tube. 2 ml of the 50% solution of hydroxypropyl-β-cyclodextrin was added to the test tube with shaking.
4 grams of hydroxypropyl-β-cyclodextrin was dissolved in 7 ml of distilled water to a total volume of 10 ml. Each ml of stock solution contained 0.4 g of solution hydroxypropyl-β-cyclodextrin. 20 mg of 3-β-hydroxy androstan-17-one (β-etiocholanolone) was shaken with 1 ml of the freshly prepared stock solution.
The same experiment as in example III was performed except that 40 mg of β-etiocholanolone was added to the stock solution of hydroxypropyl-β-cyclodextrin.
The same experiment as in example III was performed except that 20 mg of Etiocholandione was added to the stock solution of hydroxypropyl-β-cyclodextrin.
The same experiment as in example V was performed except that 40 mg of Etiocholandione was added to the stock solution of hydroxypropyl-β-cyclodextrin.
The same experiment as in Example V was performed except 80 mg or 250 mg ED was added to the stock solution.

Prader-Willi Syndrome = conditions: cited from earlier work
[8] = dissolved solution in hydroxypropyl-β-cyclodextrin, 400 NM, against water blank

## dimethyl-β- cyclodextrin
[1]
  influence on stabilization of mitomycin-C: no influence on stabilization of mitomycin-C pH degradation

## C[C@]12C=CC(=O)C=C1CC[C@@H]1[C@@H]2[C@@H](O)C[C@@]2(C)[C@H]1CC[C@]2(O)C(=O)CO [prednisolone, reference compound]
[2]; minimal doses of 10 mg, with β-ET
  suppression of local irritation: sufficient to suppress any local irritation

## OC[C@H]1O[C@@H]2O[C@H]3[C@H](O)[C@@H](O)[C@@H](O[C@H]4[C@H](O)[C@@H](O)[C@@H](O[C@H]5[C@H](O)[C@@H](O)[C@@H](O[C@H]6[C@H](O)[C@@H](O)[C@@H](O[C@H]7[C@H](O)[C@@H](O)[C@@H](O[C@H]8[C@H](O)[C@@H](O)[C@@H](O[C@H]9[C@H](O)[C@@H](O)[C@@H](O[C@H]1[C@H](O)[C@H]2O)O[C@@H]9CO)O[C@@H]8CO)O[C@@H]7CO)O[C@@H]6CO)O[C@@H]5CO)O[C@@H]4CO)O[C@@H]3CO [γ-cyclodextrin]
[1]; acidic media at pH above 1
  stabilizing effect on mitomycin: measurable stabilizing effect on mitomycin

## C[C@]12C=CC(=O)C=C1CC[C@@H]1[C@@H]2C(=O)C[C@@]2(C)[C@H]1CC[C@]2(O)C(=O)CO [prednisone]
auto-immune diseases; in vivo
  side effects: fluid retention and dramatic loss of bone or osteoporosis
auto-immune diseases; ulcerative colitis, Chrone's disease, rheumatoid arthritis
  symptoms of auto-immune diseases: effective in reducing the symptoms

## C[C@]12CC[C@H](O)C[C@@H]1CC[C@@H]1[C@@H]2CC[C@]2(C)C(=O)CC[C@@H]12 [epiandrosterone, reference compound]
[3]
  effectiveness relative to DHEA in preventing development of diabetes: but not androsterone or epiandrosterone

## C[C@]12CC[C@H](O)CC1=CC[C@@H]1[C@@H]2CC[C@]2(C)C(=O)CC[C@@H]12 [DHEA, 3-β-hydroxy-androst-5-en-17-one]
[4]; humans
  metabolism: metabolized to testosterone (17-β-hydroxy-androst-4-en-3-one) and estradiol
Rats and mice
  control of diabetes and obesity: effective in controlling diabetes and obesity
[5]
  glucose tolerance: improved glucose tolerance
  hyperglycemia: restored hyperglycemia to normal levels
Genetically obese mice; genetically obese mice, variety of routes
  rate of weight gain: decreased the rate of weight gain
[3]; genetically obese and diabetic mice
  development of diabetes: markedly reduced the development of diabetes
Female patients
  acne: severe acne

## OC[C@H]1O[C@@H]2O[C@H]3[C@H](O)[C@@H](O)[C@@H](O[C@H]4[C@H](O)[C@@H](O)[C@@H](O[C@H]5[C@H](O)[C@@H](O)[C@@H](O[C@H]6[C@H](O)[C@@H](O)[C@@H](O[C@H]7[C@H](O)[C@@H](O)[C@@H](O[C@H]1[C@H](O)[C@H]2O)O[C@@H]7CO)O[C@@H]6CO)O[C@@H]5CO)O[C@@H]4CO)O[C@@H]3CO [α-cyclodextrin]
[1]
  influence on stabilization of mitomycin-C: no influence on stabilization of mitomycin-C pH degradation

## OC[C@H]1O[C@@H]2O[C@H]3[C@H](O)[C@@H](O)[C@@H](O[C@H]4[C@H](O)[C@@H](O)[C@@H](O[C@H]5[C@H](O)[C@@H](O)[C@@H](O[C@H]6[C@H](O)[C@@H](O)[C@@H](O[C@H]7[C@H](O)[C@@H](O)[C@@H](O[C@H]8[C@H](O)[C@@H](O)[C@@H](O[C@H]1[C@H](O)[C@H]2O)O[C@@H]8CO)O[C@@H]7CO)O[C@@H]6CO)O[C@@H]5CO)O[C@@H]4CO)O[C@@H]3CO [β-cyclodextrin]
[1]
  influence on stabilization of mitomycin-C: no influence on stabilization of mitomycin-C pH degradation

## C[C@]12CC[C@H](O)C[C@H]1CC[C@@H]1[C@@H]2CC[C@]2(C)C(=O)CC[C@@H]12 [β ET, 3-β-hydroxy androstan-17-one]
[2]
  pyrogenic reaction: little pyrogenic effect
[4]
  conversion in serum: quickly converted almost exclusively to α ET
  oxidation at C-3 position to form etiocholandione: rapidly oxidized at the C-3 position
  recovery in the urine: almost exclusively α ET conjugates
[6]; [8]
  optical density (OD): 0.12
Genetically obese mice
  anti-obesity effect: anti-obesity properties
  development of obesity: can prevent and arrest the development of obesity
  weight reduction after obesity: facilitate weight reduction after obesity
Aplastic anemia patients
  patients with hematologic responses lasting longer than six months: 17
Aplastic anemia patients; treated with β-ET
  hematologic recovery in non-responders to α ET: three patients who did not respond to α ET had a hematologic recovery
[3]
  effectiveness relative to DHEA in preventing development of diabetes: four times more effective than DHEA
  blood sugar: reduce blood sugar
  effect on the pancreas (granulation of islet cells): protective effect on the pancreas
  plasma insulin concentrations: increased plasma insulin concentrations

## COC[C@H]1O[C@@H]2O[C@H]3[C@H](O)[C@@H](OC)[C@@H](O[C@H]4[C@H](O)[C@@H](OC)[C@@H](O[C@H]5[C@H](O)[C@@H](OC)[C@@H](O[C@H]6[C@H](O)[C@@H](OC)[C@@H](O[C@H]7[C@H](O)[C@@H](OC)[C@@H](O[C@H]8[C@H](O)[C@@H](OC)[C@@H](O[C@H]1[C@H](O)[C@H]2OC)O[C@@H]8COC)O[C@@H]7COC)O[C@@H]6COC)O[C@@H]5COC)O[C@@H]4COC)O[C@@H]3COC [heptakis-(2,6,-di-O-methyl)-β- cyclodextrin]
[1]
  influence on stabilization of mitomycin-C: no influence on stabilization of mitomycin-C pH degradation

## C[C@]12CC[C@@H](O)C[C@H]1CC[C@@H]1[C@@H]2CC[C@]2(C)C(=O)CC[C@@H]12 [α ET]
[2]
  pyrogenic reaction: acute pyrogenic reactions; also recorded: pyrogenic reaction and notable patient discomfort
[4]; IV, human subjects, isotopic ratio studies
  oxidation at C3 position: rapidly oxidized and re-reduced
[4]; normal individuals, endogenous
  urinary excretion: 3-5 mg per day
[4]
  oxidation at C-3 position to form etiocholandione: rapidly oxidized at the C-3 position
  recovery in the urine: almost exclusively α ET conjugates
Genetically obese mice
  anti-obesity effect: anti-obesity properties
  development of obesity: can prevent and arrest the development of obesity
  weight reduction after obesity: facilitate weight reduction after obesity
Aplastic anemia patients
  patients with hematologic responses lasting longer than six months: 17
[3]
  effectiveness relative to DHEA in preventing development of diabetes: four times more effective than DHEA
  blood sugar: reduce blood sugar
  effect on the pancreas (granulation of islet cells): protective effect on the pancreas
  plasma insulin concentrations: increased plasma insulin concentrations

## C[C@]12CCC(=O)C[C@H]1CC[C@@H]1[C@@H]2CC[C@]2(C)C(=O)CC[C@@H]12 [ED]
[4]; in vivo
  serum levels of α ET after administering ED: high levels of α ET can be achieved in the serum
[4]
  conversion in serum: quickly converted almost exclusively to α ET
[6]; [8]
  optical density (OD): 0.12
[6]; hydroxypropyl-β-cyclodextrin solution containing 80 mg of ED, 499 NM
  optical density (OD): 1.2
Obese subjects; 10-week period
  mean fat loss of the initial body fat content: about 5%
Obese subjects; 14 subjects
  weight and body fat loss vs placebo: lost significantly more weight and body fat
Obese subjects; four grams per day
  fat loss: significant fat loss
  mean weight loss: 2.8±5.5 kilograms
  mean weight loss normalized to body fat: 0.5±0.91 kilograms per week per 100 kilograms of body fat
Obese subjects
  subjective or objective side effects: no significant subjective or objective side effects
[7]; 12 mg in 0.5 ml of water, after 5 minutes
  dissolution in water: Appreciable quantities of compound remained out of solution
[7]; 12 mg in 1 ml of 25% hydroxypropyl-β-cyclodextrin
  appearance of solution: A clear solution was obtained
[7]; 20 mg in 1 ml stock solution (0.4 g/ml hydroxypropyl-β-cyclodextrin), room temperature, occasional shaking
  time to complete dissolution: ≤ 6 h
[7]; 40 mg in 1 ml stock solution (0.4 g/ml hydroxypropyl-β-cyclodextrin)
  time to complete dissolution: ≤ 24 h
[7]; 50 mg in 2 ml of 50% hydroxypropyl-β-cyclodextrin
  appearance of solution: clear solution with no accumulation of crystals
[7]; 50 mg in 2 ml of 50% hydroxypropyl-β-cyclodextrin, with shaking
  time to dissolution: Within one minute
[7]; 80 mg added to stock solution (0.4 g/ml hydroxypropyl-β-cyclodextrin)
  complete dissolution: In neither case did the ED completely dissolve
[7]; 250 mg added to stock solution (0.4 g/ml hydroxypropyl-β-cyclodextrin)
  complete dissolution: In neither case did the ED completely dissolve

## C[C@]12CC[C@@H](O)C[C@@H]1CC[C@@H]1[C@@H]2CC[C@]2(C)C(=O)CC[C@@H]12 [androsterone, reference compound]
[3]
  effectiveness relative to DHEA in preventing development of diabetes: but not androsterone or epiandrosterone

## C[C@]12CC[C@@H](O)C[C@H]1CC[C@@H]1[C@@H]2CC[C@]2(C)C(=O)CC[C@@H]12 [etiocholanolone]
Prader-Willi Syndrome
  weight change in treated individuals: either weight loss or a decrease in the rate of weight gain
